Our source for the Ki values is US20250122225A1, “MASP-2 INHIBITORS AND METHODS OF USE” (Omeros Corporation, priority 2023, published 2025).

Counter-ions that a name gives are not always drawn.

One test addresses T1, MASP-2 (CCP1-CCP2-SP) (Homo sapiens, UniProt O00187).
T1 construct: 15 μL of Enzyme MASP-2 (CCP1-CCP2-SP) in Assay Buffer
Nature of the test: Enzymatic assay for MASP-2 inhibitory activity (fluorogenic substrate). It counts as biochemical. A digest of the protocol: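 Fluorescence was normalized between no-enzyme and DMSO-only controls to derive % activity, with IC50 taken as equivalent to Ki except for tight-binding inhibitors. Reactions ran 20 min at room temperature in HEPES pH 7.4/NaCl/Tween 20 buffer, using the C2-derived fluorogenic substrate, before acetic acid stop.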

The target in a further test is T2, human α-thrombin (Homo sapiens, UniProt P00734).
T2 construct: enzyme (human α-thrombin (BioPharm® Lab.)) in assay buffer; purchased BioPharm® Lab
As to the kind of experiment: Enzymatic assay for thrombin (fluorogenic peptide substrate Boc-VPR-AMC). It counts as biochemical. Put shortly:
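Assay conditions kept the reaction linear in time, enzyme and substrate, so IC50 approximated Ki apart from tight- or slow-binding cases. Boc-VPR-AMC cleavage by human α-thrombin proceeded 20 min at room temperature in Hepes pH 7.4/NaCl/Tween 20 buffer, then was acid-quenched and read by fluorescence.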

T1 sequence (O00187 445-686 limits assumed): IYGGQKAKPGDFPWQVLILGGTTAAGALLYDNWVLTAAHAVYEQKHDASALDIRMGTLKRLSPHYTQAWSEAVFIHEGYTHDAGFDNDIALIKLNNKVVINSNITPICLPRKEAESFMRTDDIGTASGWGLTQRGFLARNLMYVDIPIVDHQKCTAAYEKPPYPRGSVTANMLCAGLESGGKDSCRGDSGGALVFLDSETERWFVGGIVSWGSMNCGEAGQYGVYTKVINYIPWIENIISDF
T1 sequence (O00187 287-444 partner limits assumed): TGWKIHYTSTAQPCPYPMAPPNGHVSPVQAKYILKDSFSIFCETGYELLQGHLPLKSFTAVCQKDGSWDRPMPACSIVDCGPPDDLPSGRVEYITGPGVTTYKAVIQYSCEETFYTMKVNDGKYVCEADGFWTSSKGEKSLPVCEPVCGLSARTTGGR

As usually defined, the Ki is a measure of affinity in units of concentration, obtained from inhibition or displacement. `C[C@@H]1C[C@@H](C(=O)NCc2cc3cnccc3[nH]2)n2c1cnc(NCc1ccccc1)c2=O` [Compound 227, trifluoroacetate]: the Ki on MASP-2 (CCP1-CCP2-SP) is < 0.5 µM; on human α-thrombin, 2.5 to 10 µM.

As for `CC1(C)C[C@@H](C(=O)NCc2cc3cnccc3[nH]2)n2c1c(Cl)nc(NCc1ccccc1)c2=O` [Compound 229, (S)-N-((1H-pyrrolo[3,2-c]pyridin-2-yl)methyl)-3-(benzylamino)-1-chloro-8,8-dimethyl-4-oxo-4,6,7,8-tetrahydropyrrolo[1,2-a]pyrazine-6-carboxamide trifluoroacetate], the Ki at MASP-2 (CCP1-CCP2-SP) is < 0.5 µM; at human α-thrombin it was 2.5 to 10 µM.

Consider `O=C(NCc1cc2cnccc2[nH]1)[C@@H]1CC2(CCCC2)c2c(Cl)nc(NCc3ccccc3)c(=O)n21` [Compound 231, (S)—N-((1H-pyrrolo[3,2-c]pyridin-2-yl)methyl)-3′-(benzylamino)-1′-chloro-4′-oxo-6′,7′-dihydro-4′H-spiro[cyclopentane-1,8′-pyrrolo[1,2-a]pyrazine]-6′-carboxamide trifluoroacetate], for which the Ki on MASP-2 (CCP1-CCP2-SP) was < 0.5 µM; at human α-thrombin, 10 to 25 µM.

For `Nc1nc(Cl)c2n(c1=O)[C@H](C(=O)NCc1cc3cnccc3[nH]1)CC21CCCC1` [Compound 232, (S)—N-((1H-pyrrolo[3,2-c]pyridin-2-yl)methyl)-3′-amino-1′-chloro-4′-oxo-6′,7′-dihydro-4′H-spiro[cyclopentane-1,8′-pyrrolo[1,2-a]pyrazine]-6′-carboxamide trifluoroacetate], the Ki was 0.5 to 2.5 µM on MASP-2 (CCP1-CCP2-SP) and > 25 µM on human α-thrombin.

For `O=C(NCc1cc2cnccc2[nH]1)[C@@H]1CC2(CC=CC2)c2c(Cl)nc(NCc3ccccc3)c(=O)n21` [Compound 233, (S)—N-((1H-pyrrolo[3,2-c]pyridin-2-yl)methyl)-3′-(benzylamino)-1′-chloro-4′-oxo-6′,7′-dihydro-4′H-spiro[cyclopentane-1,8′-pyrrolo[1,2-a]pyrazin]-3-ene-6′-carboxamide trifluoroacetate], the Ki at MASP-2 (CCP1-CCP2-SP) is < 0.5 µM; on human α-thrombin, > 25 µM.

On to `CC[C@@H](Nc1ncc2n(c1=O)[C@H](C(=O)NCc1cc3c(s1)CNC3)CC2)c1ccccc1` [Compound 234], for which the Ki at MASP-2 (CCP1-CCP2-SP) and on human α-thrombin was < 0.5 µM in each case.

For the compound `O=C(NCc1cc2c(s1)CNC2)[C@@H]1CCc2cnc(NC3CCc4ccccc43)c(=O)n21` (some centres unmarked) [Compound 235], the Ki at MASP-2 (CCP1-CCP2-SP) and at human α-thrombin was < 0.5 µM throughout.

For the compound `Nc1ccc2c(n1)CC[C@H]2NC(=O)[C@@H]1CCc2cnc(NCc3cccc(-c4ccccc4)c3)c(=O)n21` [Compound 236], the Ki at MASP-2 (CCP1-CCP2-SP) is < 0.5 µM; at human α-thrombin, 0.5 to 2.5 µM.

On to `Cc1ccc(C)c(CNc2ncc3n(c2=O)[C@H](C(=O)N[C@H](C)c2ccc(N)nc2C)CC3)c1` [Compound 237], for which the inhibition constant Ki was < 0.5 µM on MASP-2 (CCP1-CCP2-SP) and 0.5 to 2.5 µM at human α-thrombin.

In the case of `Cc1cc(C)cc(CNc2ncc3n(c2=O)[C@H](C(=O)N[C@H](C)c2ccc(N)nc2C)CC3)c1` [Compound 238], the Ki was < 0.5 µM at MASP-2 (CCP1-CCP2-SP) and 0.5 to 2.5 µM at human α-thrombin.

In the case of `O=C(NCc1cc2cnccc2[nH]1)[C@@H]1CCc2c(Cl)nc(NCCc3cccnc3)c(=O)n21` [Compound 241], the Ki on MASP-2 (CCP1-CCP2-SP) and on human α-thrombin was < 0.5 µM throughout.

Take `O=C(NCc1cc2c(s1)CNC2)[C@@H]1CCc2c(Cl)nc(NCCc3ccccc3)c(=O)n21` [Compound 242]: the inhibition constant Ki at MASP-2 (CCP1-CCP2-SP) and at human α-thrombin was < 0.5 µM each time.

Turning to `N=C(N)c1ccc(CNC(=O)[C@@H]2CCc3c(Cl)nc(NCc4ccccc4)c(=O)n32)cc1` [Compound 243], the inhibitory constant (Ki) on MASP-2 (CCP1-CCP2-SP) and at human α-thrombin was < 0.5 µM each time.

For `COC(CNc1nc(Cl)c2n(c1=O)[C@H](C(=O)NCc1cc3cnccc3[nH]1)CC2)c1ccccc1` (some centres unmarked) [Compound 244], the results for the inhibition constant Ki at MASP-2 (CCP1-CCP2-SP) and on human α-thrombin were < 0.5 µM and 0.5 to 2.5 µM, respectively.

With `O=C(NCc1cc2cnccc2[nH]1)[C@@H]1CCc2c(Cl)nc(NCC3(c4ccccc4)CC3)c(=O)n21` [Compound 245], the values for the inhibition constant (Ki) at MASP-2 (CCP1-CCP2-SP) and at human α-thrombin were < 0.5 µM and 0.5 to 2.5 µM, respectively.

Take `O=C(NCc1cc2cnccc2[nH]1)[C@@H]1CCc2c(-c3cn[nH]c3)nc(NCCc3ccccc3)c(=O)n21` [Compound 246]: the inhibition constant Ki is < 0.5 µM at MASP-2 (CCP1-CCP2-SP) and > 25 µM on human α-thrombin.

In the case of `O=C(NCc1cc2cnccc2[nH]1)[C@@H]1CCc2c(C3CC3)nc(NCCc3ccccc3)c(=O)n21` [Compound 247], the inhibitory constant (Ki) was < 0.5 µM on MASP-2 (CCP1-CCP2-SP) and 0.5 to 2.5 µM at human α-thrombin.

For `O=C(NCc1cc2cnccc2[nH]1)[C@@H]1CCc2cnc(NCCc3ccccc3)c(=O)n21` [Compound 248], the Ki at MASP-2 (CCP1-CCP2-SP) and on human α-thrombin was < 0.5 µM throughout.

With `O=C(NCc1cc2cnccc2[nH]1)[C@@H]1CCc2c(Cl)nc(NCCc3ccccc3)c(=O)n21` [Compound 249], the inhibitory constant (Ki) at MASP-2 (CCP1-CCP2-SP) is < 0.5 µM; on human α-thrombin it was 0.5 to 2.5 µM.

For the compound `N=C(N)c1ccc(CNC(=O)[C@@H]2CCc3c(Cl)nc(NCCc4ccccc4)c(=O)n32)cc1` [Compound 250], the Ki at MASP-2 (CCP1-CCP2-SP) lay in the range of 0.5 to 2.5 µM; at human α-thrombin, 2.5 to 10 µM.

As for `O=C(NCc1cc2cnccc2[nH]1)[C@@H]1CCc2c(Cl)nc(NCC3(c4ccccc4)COC3)c(=O)n21` [Compound 251], the inhibition constant Ki on MASP-2 (CCP1-CCP2-SP) is < 0.5 µM; at human α-thrombin it was 0.5 to 2.5 µM.

As to `O=C(NCc1cc2c(s1)CNC2)[C@@H]1CCc2cnc(NCC3(Cc4ccccc4)CCCCC3)c(=O)n21` [Compound 252], the Ki was < 0.5 µM at MASP-2 (CCP1-CCP2-SP) and 2.5 to 10 µM at human α-thrombin.

For `Cc1ccc(C)c([C@@H](C)Nc2ncc3n(c2=O)[C@H](C(=O)NCc2cc4c(s2)CNC4)CC3)c1` [Compound 253, (S)—N-((5,6-dihydro-4H-thieno[2,3-c]pyrrol-2-yl)methyl)-3-(((R)-1-(2,5-dimethylphenyl)ethyl)amino)-4-oxo-4,6,7,8-tetrahydropyrrolo[1,2-a]pyrazine-6-carboxamide], the inhibition constant (Ki) at MASP-2 (CCP1-CCP2-SP) and at human α-thrombin was < 0.5 µM throughout.

As for `O=C(NCc1cc2c(s1)CNC2)[C@@H]1CCc2cnc(N[C@@H]3CCc4ccccc43)c(=O)n21` [Compound 254, (S)-3-(((R)-2,3-dihydro-1H-inden-1-yl)amino)-N-((5,6-dihydro-4H-thieno[2,3-c]pyrrol-2-yl)methyl)-4-oxo-4,6,7,8-tetrahydropyrrolo[1,2-a]pyrazine-6-carboxamide], the Ki was < 0.5 µM on MASP-2 (CCP1-CCP2-SP) and 0.5 to 2.5 µM at human α-thrombin.

Regarding `CC(C)[C@@H](Nc1ncc2n(c1=O)[C@H](C(=O)NCc1cc3c(s1)CNC3)CC2)c1ccccc1` [Compound 255], the inhibition constant Ki at MASP-2 (CCP1-CCP2-SP) and at human α-thrombin was < 0.5 µM in each case.

Turning to `O=C(NCc1cc2c(s1)CNC2)[C@@H]1CCc2cnc(N[C@@H](c3ccccc3)C3CCC3)c(=O)n21` [Compound 256], the Ki on MASP-2 (CCP1-CCP2-SP) and on human α-thrombin was < 0.5 µM each time.

As for `CCC[C@@H](Nc1ncc2n(c1=O)[C@H](C(=O)NCc1cc3c(s1)CNC3)CC2)c1ccccc1` [Compound 258], the inhibition constant (Ki) at MASP-2 (CCP1-CCP2-SP) and at human α-thrombin was < 0.5 µM throughout.

As to `O=C(NCc1cc2c(s1)CNC2)[C@@H]1CCc2cnc(N[C@@H]3CCc4ccc(-c5ccccc5)cc43)c(=O)n21` [Compound 260, (S)-N-((5,6-dihydro-4H-thieno[2,3-c]pyrrol-2-yl)methyl)-4-oxo-3-(((R)-6-phenyl-2,3-dihydro-1H-inden-1-yl)amino)-4,6,7,8-tetrahydropyrrolo[1,2-a]pyrazine-6-carboxamide trifluoroacetate], the Ki at MASP-2 (CCP1-CCP2-SP) is < 0.5 µM; on human α-thrombin, 2.5 to 10 µM.
